Reference: ChEMBL document CHEMBL5257089, “Gamabufotalin Induces Apoptosis and Cytoprotective Autophagy through the mTOR Signaling Pathway in Hepatocellular Carcinoma” (J Nat Prod, 2023)
Active and inactive are the calls of the source. No cut-off for these calls is given here.

Assays:
[1] = tested on: Huh-7; experiment: Induction of apoptosis in human Huh-7 cells assessed as early apoptotic cells at 10 nM incubated for 48 hrs by Annexin V-FITC/PI staining based flow cytometry method (reference value: 2.8%); assay type: functional
[2] = tested on: Huh-7; experiment: Induction of autophagic flux in human Huh-7 cells assessed as rescue of LC3-I accumulation at 10 uM incubated for 48 hrs in presence of gamabufotalin by Western blot analysis; assay type: functional, cell-based
[3] = tested on: Hep 3B2; experiment: Induction of apoptosis in human Hep3B cells assessed as late apoptotic cells at 10 nM incubated for 48 hrs by Annexin V-FITC/PI staining based flow cytometry method (reference value: 3.5%); assay type: functional
[4] = tested on: Hep 3B2; experiment: Induction of autophagic flux in human Hep3B cells harbouring mCherry-egfp-LC3 assessed as reduction in number of yellow puncta ratio at 10 nM incubated for 15 mins in presence of gamabufotalin by laser scanning confocal microscopic analysis; assay type: functional, cell-based
[5] = tested on: Hep 3B2; experiment: Induction of apoptosis in human Hep3B cells assessed as decrease in bcl-2 level at 10 nM incubated for 48 hrs in presence of gamabufotalin by immunoblot analysis; assay type: functional, cell-based
[6] = tested on: Huh-7; experiment: Induction of apoptosis in human Huh-7 cells assessed as necrotic cells at 10 nM incubated for 48 hrs in presence of gamabufotalin by Annexin V-FITC/PI staining based flow cytometry method (reference value: 1.0%); assay type: functional
[7] = tested on: Hep 3B2; experiment: Induction of morphological changes in human Hep3B cells assessed as round cell morphology at upto 25 nM incubated for 48 hrs by bright field imaging analysis; assay type: functional, cell-based
[8] = tested on: Huh-7; experiment: Induction of apoptosis in human Huh-7 cells assessed as early apoptotic cells at 25 nM incubated for 48 hrs by Annexin V-FITC/PI staining based flow cytometry method (reference value: 2.8%); assay type: functional
[9] = Toxicity in mouse assessed as effect on heart at 5 mg/kg,ip administered every second day for 3 weeks by H and E staining based microscopic method; assay type: organism-based; conditions: in vivo, 504 h
[10] = tested on: Hep 3B2; experiment: Induction of apoptosis in human Hep3B cells assessed as upregulation of cleaved PARP level […] incubated for 48 hrs in presence of 4,6-dimorpholino-N-(4-nitrophenyl)-1,3,5-triazin-2-amine by immunoblot analysis; assay type: functional, cell-based
[11] = tested on: Huh-7; experiment: Induction of apoptosis in human Huh-7 cells assessed as viable cells at 25 nM incubated for 48 hrs by Annexin V-FITC/PI staining based flow cytometry method (reference value: 90.0%); assay type: functional; conditions: read-out: Activity
[12] = tested on: Huh-7; experiment: Induction of apoptosis in human Huh-7 cells assessed as early apoptotic cells at 25 nM incubated for 48 hrs by Annexin V-FITC/PI staining based flow cytometry method (reference value: 4.3%); assay type: functional
[13] = tested on: Hep 3B2; experiment: Induction of autophagic flux in human Hep3B cells assessed as increase in high electron density vesicles at 25 nM incubated for 48 hrs by transmission electron microscopic analysis; assay type: functional, cell-based
[14] = tested on: Hep 3B2; experiment: Induction of autophagic flux in human Hep3B cells assessed as increase in LC3-II expression at upto 25 nM incubated for 48 hrs by Western blot analysis; assay type: functional, cell-based
[15] = tested on: Hep 3B2; experiment: Induction of apoptosis in human Hep3B cells assessed as viable cells at 15 nM incubated for 48 hrs by Annexin V-FITC/PI staining based flow cytometry method (reference value: 93.3%); assay type: functional; conditions: read-out: Activity
[16] = tested on: Huh-7; experiment: Induction of apoptosis in human Huh-7 cells assessed as late apoptotic cells at 25 nM incubated for 48 hrs in presence of 4,6-dimorpholino-N-(4-nitrophenyl)-1,3,5-triazin-2-amine by Annexin V-FITC/PI staining based flow cytometry method (reference value: 3.8%); assay type: functional
[17] = tested on: Huh-7; experiment: Induction of autophagy in human Huh-7 cells assessed as rescue of ULK1 phosphorylation level at upto 25 nM incubated for 48 hrs in presence of chloroquine by immunoblot method; assay type: functional, cell-based
[18] = tested on: Hep 3B2; experiment: Induction of apoptosis in human Hep3B cells assessed as viable cells at 25 nM incubated for 48 hrs in presence of 4,6-dimorpholino-N-(4-nitrophenyl)-1,3,5-triazin-2-amine by Annexin V-FITC/PI staining based flow cytometry method (Rvb =95.7%); assay type: functional; conditions: read-out: Activity
[19] = tested on: Huh-7; experiment: Induction of autophagy in human Huh-7 cells harbouring mCherry-egfp-LC3 assessed as reduction in yellow puncta ratio at 25 nM incubated for 15 mins in presence of 4,6-dimorpholino-N-(4-nitrophenyl)-1,3,5-triazin-2-amine by laser scanning confocal microscopic analysis; assay type: functional, cell-based
[20] = tested on: Hep 3B2; experiment: Induction of apoptosis in human Hep3B cells assessed as increase in cleaved bax level at 25 nM incubated for 48 hrs in presence of chloroquine by immunoblot analysis; assay type: functional, cell-based
[21] = tested on: Huh-7; experiment: Induction of apoptosis in human Huh-7 cells assessed as increase in caspase-3 expression at upto 25 nM incubated for 48 hrs by Western blot analysis; assay type: functional, cell-based
[22] = tested on: Huh-7; experiment: Induction of apoptosis in human Huh-7 cells assessed as increase in cleaved caspase-3 expression at upto 25 nM incubated for 48 hrs by Western blot analysis; assay type: functional, cell-based
[23] = tested on: Huh-7; experiment: Induction of apoptosis in human Huh-7 cells assessed as necrotic cells at 25 nM incubated for 48 hrs in presence of chloroquine by Annexin V-FITC/PI staining based flow cytometry method (reference value: 1.0%); assay type: functional
[24] = tested on: Huh-7; experiment: Induction of apoptosis in human Huh-7 cells assessed as increase in Bcl-2 expression at upto 25 nM incubated for 48 hrs by Western blot analysis; assay type: functional, cell-based
[25] = tested on: Hep 3B2; experiment: Induction of apoptosis in human Hep3B cells assessed as late apoptotic cells at 20 nM incubated for 48 hrs by Annexin V-FITC/PI staining based flow cytometry method (reference value: 2.6%); assay type: functional
[26] = tested on: Hep 3B2; experiment: Induction of apoptosis in human Hep3B cells assessed as increase in PARP expression at upto 25 nM incubated for 48 hrs by Western blot analysis; assay type: functional, cell-based
[27] = tested on: Huh-7; experiment: Induction of apoptosis in human Huh-7 cells assessed as necrotic cells at 20 nM incubated for 48 hrs by Annexin V-FITC/PI staining based flow cytometry method (reference value: 95.4%); assay type: functional
[28] = tested on: Hep 3B2; experiment: Induction of apoptosis in human Hep3B cells assessed as early apoptotic cells at 25 nM incubated for 48 hrs by Annexin V-FITC/PI staining based flow cytometry method (reference value: 1.3%); assay type: functional
[29] = tested on: Huh-7; experiment: Induction of apoptosis in human Huh-7 cells assessed as reduction in Bcl-2 level at 25 nM incubated for 48 hrs in presence of chloroquine by immunoblot analysis; assay type: functional, cell-based
[30] = tested on: Huh-7; experiment: Induction of morphological changes in human Huh-7 cells assessed as adherent cells at upto 25 nM incubated for 48 hrs by bright field imaging analysis; assay type: functional, cell-based
[31] = tested on: Hep 3B2; experiment: Antitumor activity against human Hep3B cells xenografted in nude mouse model assessed as decrease in tumor weight at 5 mg/kg,ip administered every second day for 3 weeks by vernier caliper method; assay type: functional, organism-based
[32] = tested on: Huh-7; experiment: Induction of apoptosis in human Huh-7 cells assessed as late apoptotic cells at 25 nM measured after 48 hrs in presence of z-VAD-FMK by annexin V-FITC/Propidium iodide staining based flow cytometric analysis (reference value: 6.1%); assay type: functional
[33] = tested on: Hep 3B2; experiment: Induction of apoptosis in human Hep3B cells assessed as viable cells at 20 nM incubated for 48 hrs by Annexin V-FITC/PI staining based flow cytometry method (reference value: 93.3%); assay type: functional; conditions: read-out: Activity
[34] = tested on: Huh-7; experiment: Induction of apoptosis in human Huh-7 cells assessed as fragmented nuclei at upto […] incubated for 48 hrs by Hoechst33258 staining based fluorescence microscopy; assay type: functional, cell-based

CCN(CC)CCCC(C)Nc1ccnc2cc(Cl)ccc12 (centres undefined) [CHLOROQUINE]
Activity [1]: 2.9%
Activity [2]: Active
Activity [3]: 4.4%
Activity [4]: Active
Activity [5]: Active
Activity [6]: 3.4%

C[C@]12CC[C@H](O)C[C@H]1CC[C@@H]1[C@@H]2[C@H](O)C[C@]2(C)[C@@H](c3ccc(=O)oc3)CC[C@]12O [GAMABUFOTALIN]
Activity [7]: Active
Activity [8]: 8.7%
Activity [9]: Non-Toxic
Activity [10]: Active
viability at 0.025 µM [11]: 81.5%
Activity [12]: 8.7%
Activity [13]: Active
Activity [14]: Active
viability at 0.015 µM [15]: 88.2%
Activity [16]: 6.6%
Activity [17]: Active
viability at 0.025 µM [18]: 67.2%
Activity [19]: Active
Activity [20]: Active
Activity [21]: Active
Activity [22]: Active
Activity [23]: 3.4%
Activity [24]: Active
Activity [25]: 5.2%
Activity [26]: Active
Activity [27]: 60.8%
Activity [28]: 14.3%
Activity [29]: Active
Activity [30]: Active
Activity [31]: Active
Activity [32]: 7.4%
viability at 0.02 µM [33]: 88.7%
Activity [34]: Active
